Assay results from PubChem BioAssay (NCI).
Several values for one entry are separate records, joined by “and”; a condition that tells them apart may be missing. Equal values may be shown once.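 All cell lines were grown in 96-well plates and treated with compound for 48 hours. Abbreviation: GI50, concentration required for 50% inhibition of growth. Definition used: TGI = concentration required for complete inhibition of growth.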

Legend:
Experiment in all cases: NCI-60 cell line screen, 48 h
[1] = tested on: NCI-H522 lung
[2] = tested on: OVCAR-3 ovarian
[3] = tested on: 786-0 renal
[4] = tested on: HOP-62 NSCLC
[5] = tested on: HT29 colon
[6] = tested on: UACC-62 melanoma
[7] = tested on: M14 melanoma
[8] = tested on: MOLT-4 leukemia
[9] = tested on: SF-268 CNS
[10] = tested on: MDA-MB-231 breast

Structure (SMILES)	GI50 [1]	TGI [1]	GI50 [2]	TGI [2]	GI50 [3]	TGI [3]	GI50 [4]	TGI [4]	GI50 [5]	TGI [5]	GI50 [6]	TGI [6]	GI50 [7]	TGI [7]	GI50 [8]	TGI [8]	GI50 [9]	TGI [9]	GI50 [10]	TGI [10]
OCC1SC(n2cnc3cncnc32)C(O)C1O (configuration not stated)	> 100 µM	> 100 µM	> 100 µM	> 100 µM	> 100 µM	> 100 µM	> 100 µM	> 100 µM	> 100 µM	> 100 µM	> 100 µM	> 100 µM	> 100 µM	> 100 µM	> 100 µM	> 100 µM	> 100 µM	> 100 µM	> 100 µM	> 100 µM
COc1cc2c(cc1OC)C13CCN4CC5=CCOC(CC(=O)O)C(C5CC41)C3N2 (configuration not stated)		> 100 µM		> 100 µM		> 100 µM		> 100 µM		> 100 µM		> 100 µM		> 100 µM		> 100 µM		> 100 µM		> 100 µM
COC1=CC(c2ccc[nH]2)=N/C1=C\c1[nH]c(C)c(C(=O)CCC(=O)Oc2ccc3c(c2)CCC2C3CC[C@]3(C)C(=O)CC[C@@H]23)c1C (some centres not stated)	4.71 µM	60.1 µM	17.5 µM	> 100 µM	6 µM	39.1 µM	18.2 µM	66 µM	0.839 µM	> 100 µM	3.71 µM	17.9 µM	12.3 µM	33.4 µM	2.71 µM	> 100 µM	5.58 µM	> 100 µM	0.276 µM	1.19 µM
COc1ccc2c(c1)O/C(=C\c1cccc(OCC(=O)Nc3nc4ccccc4s3)c1)C2=O	0.718 µM	2.74 µM	3.16 µM	9.56 µM	> 66.4 µM	> 100 µM	41.1 µM	> 100 µM	> 58.7 µM	> 100 µM	23.5 µM	> 100 µM	36.3 µM	> 100 µM	3.33 µM	20.2 µM	4.83 µM	11 µM	7.35 µM	> 23.1 µM
CO/N=C(\c1ccccc1)c1cnn(-c2ccccc2)c1N	> 25 µM	> 25 µM	> 25 µM	> 25 µM	> 25 µM	> 25 µM	> 25 µM	> 25 µM	> 25 µM	> 25 µM	> 25 µM	> 25 µM	> 25 µM	> 25 µM	> 25 µM	> 25 µM	> 25 µM	> 25 µM	> 25 µM	> 25 µM
O=C(c1ccccc1)c1ccc(-c2ccc(O)cc2)cc1	1.66 µM	8.47 µM	7.59 µM	31.6 µM	17.8 µM	> 66.8 µM	7.08 µM	25.9 µM	31.7 µM	> 100 µM	0.687 µM	33.7 µM	2.04 µM	> 100 µM	4.28 µM	33.4 µM	5.85 µM	57.3 µM	6.08 µM	37.6 µM
CN(C(=O)c1ccc(F)cc1C(F)(F)F)C1CCN(c2nnc(-c3ccnn3C)c3ccccc23)CC1	16.2 µM	> 100 µM	38.1 µM	> 100 µM	> 100 µM	> 100 µM	65.1 µM	> 100 µM	55.5 µM	> 100 µM	28.9 µM	> 100 µM	46.7 µM	> 100 µM	23.2 µM	68.8 µM	> 74.5 µM	> 100 µM	37.8 µM	> 100 µM
O=C(CC12CC3CC(CC(C3)C1)C2)NCCOCCOCCNC(=O)c1cc2c(o1)C(=O)c1ccccc1C2=O	1.34 µM	3.04 µM	0.243 µM	0.72 µM	2.05 µM	4.7 µM	1.52 µM	2.86 µM	2.38 µM	5.85 µM	0.271 µM	0.748 µM	0.211 µM	0.462 µM	1.97 µM	4.98 µM	1.68 µM	3.9 µM	1.53 µM	5.68 µM
O=C1OCC(c2ccc(O)c(O)c2)=C1c1cc(O)c(O)c(O)c1	47.4 µM	> 100 µM	12.9 µM	26.5 µM	18.1 µM	32.7 µM	18.5 µM	33.3 µM	32.5 µM	98.2 µM	52.7 µM	> 100 µM	23.9 µM	69.7 µM	12.9 µM	27.8 µM	63.7 µM	> 100 µM	15.2 µM	31 µM
C=C1C(=O)O[C@H]2[C@H]1CC/C(COC(=O)OCCCCCOC(=O)OC/C1=C/CC[C@@]3(C)O[C@H]3[C@H]3OC(=O)C(=C)[C@@H]3CC1)=C\CC[C@@]1(C)O[C@@H]21	0.156 µM	0.372 µM	0.273 µM	0.823 µM	0.266 µM	0.93 µM	1.76 µM	4.02 µM	0.242 µM	0.726 µM	1.28 µM	3.05 µM	0.406 µM	1.81 µM	0.229 µM	0.727 µM	1.68 µM	3.99 µM	0.256 µM	0.803 µM
O=C1C(=O)c2ccc(Br)cc2-c2cc(Br)ccc21	0.407 µM	1.74 µM	0.619 µM	1.36 µM	10.4 µM	> 56.3 µM	8.44 µM	> 45.6 µM	> 74.3 µM	> 100 µM	15.2 µM	> 64.9 µM	6.34 µM	> 66.6 µM	0.522 µM	1.66 µM	1.35 µM	8.58 µM	0.82 µM	2.54 µM
CCN(CC)c1ccc(NC(C(=O)c2ccccc2)c2ccccc2)cc1 (configuration not stated)	2.3 µM	7.05 µM	3.05 µM	8.15 µM	1.83 µM	3.59 µM	4.31 µM	16.5 µM	3.19 µM	> 100 µM	1.92 µM	4.09 µM	2.16 µM	5.91 µM	0.696 µM	24.4 µM	4.23 µM	17.4 µM	2.85 µM	10.3 µM
Cc1cc(N(CCCl)CCCl)ccc1C=Nc1cccnc1	14.3 µM	38.1 µM	5.33 µM	31.7 µM	6.6 µM	> 69.1 µM	10.5 µM	> 100 µM	> 79 µM	> 100 µM	1.59 µM	16.1 µM	22.5 µM	> 100 µM	2.05 µM	> 80.9 µM	11.3 µM	> 100 µM	67.6 µM	> 100 µM
COc1ccc2c(c1)C(=O)c1c-2c(NCCCN(C)C)nc2ccccc12	9.79 µM	23.4 µM	15.3 µM	31.7 µM	4.24 µM	18.7 µM	5.93 µM	19.9 µM	1.02 µM	2.82 µM	2.09 µM	4.41 µM	5.41 µM	17.9 µM	1.43 µM	11.1 µM	1.7 µM	4.71 µM	1.98 µM	11.6 µM
Cc1c(Cl)cccc1NC(=O)CC1Sc2ccccc2NC1=O (configuration not stated)		64.7 µM and 79.7 µM		31.2 µM and 41.9 µM		50.9 µM and 31.7 µM		42.3 µM and 31.1 µM		63.3 µM	15.2 µM and 38.6 µM	77.5 µM and > 100 µM		81.7 µM and 93 µM		> 100 µM	18.4 µM and 37.1 µM	46.6 µM and > 100 µM		32.1 µM
O=S(=O)(c1cccc(C(F)(F)F)c1)N1c2ccccc2-n2cccc2C1c1cccnc1 (configuration not stated)		> 53.6 µM		> 55 µM		> 62.3 µM		> 66.8 µM		> 58 µM		> 59.5 µM		> 55.8 µM		> 56.6 µM		> 66 µM		> 54.5 µM
CS(=O)(=O)c1nccc(-c2c(-c3cccc(OCc4ccc(F)cc4)c3)nc3sccn23)n1	8.15 µM	> 100 µM	19 µM	> 100 µM	16.8 µM	> 100 µM	57.2 µM	> 100 µM	53.9 µM	> 100 µM	17.5 µM	> 100 µM	25.9 µM	> 100 µM	2.64 µM	> 100 µM	40.1 µM	> 100 µM	34.3 µM	> 100 µM
CC1(C)CCC(S(=O)(=O)c2ccc3c(c2)/C(=N\O)c2cc(S(=O)(=O)N4CCC(O)(c5cccc(C(F)(F)F)c5)CC4)ccc2-3)CC1	0.0198 µM	0.0452 µM	0.0211 µM	0.0442 µM	0.145 µM	0.36 µM	0.0208 µM	0.0489 µM	0.0257 µM	0.0723 µM	0.0196 µM	0.0351 µM	0.019 µM	0.0375 µM	0.0199 µM	0.0444 µM	0.0198 µM	0.0429 µM	0.0217 µM	0.0438 µM
O=C1Nc2ccc(Cl)cc2/C1=C\c1c(-c2ccc(F)cc2)nc2ccccn12	2.17 µM	5.42 µM	1.89 µM	3.8 µM	2.18 µM	5.2 µM	2.35 µM	6.32 µM	2.33 µM	5.41 µM	2.58 µM	11.5 µM	3.02 µM	8.62 µM	2.89 µM	8.13 µM	2.34 µM	6.04 µM	3.5 µM	36.6 µM
